Assay results from US20150056166A1, “FLAVONE DERIVATIVES AND THEIR USE” (Twincore GmbH, priority 2012, published 2015).
“Also recorded” adds a separate entry of the source.

Columns and labels:
Huh7.5 F-Luc cells = experiment: Cytotoxicity of chloroquine (FIG. 11A); conditions: at the used concentrations
JcR-2a virus = experiment: Chloroquine alone and with BJ486K, JcR-2a virus in Huh7.5 F-Luc cells; format: cell-based, HCV; conditions: chloroquine alone
Experimental: Result from one experiment with triplicate measurements is given. (B) Combined effects of CQ on BJ486K activity (and vice versa) were analyzed by inoculation of Huh7.5 F-Luc cells with JcR-2a virus in the presence of given drugs and determination of luciferase activity 72 h later. Results from 3 independent experiments are given.

[1] = tested on: Luc-Jc1/E2/G451R reporter viruses; experiment: Resistance test, Luc-Jc1 versus Luc-Jc1/E2/G451R reporter virus; format: cell-based, HCV; conditions: Huh7-Lunet/CD81 cells, luciferase 72 h
Experimental: FIG. 4: BJ486K is not affected by viral resistance towards a SR-BI-targeting compound, inhibits HCV of different genotypes and prevents infection of primary human hepatocytes Huh7-Lunet/CD81 cells were inoculated with Luc-Jc1 or Luc-Jc1/E2/G451R reporter viruses in the presence of increasing doses of (A) ITX 5061 or (B) BJ486K. Cells were lysed 72 h later. Luciferase activity was determined and is expressed relative to control infections conducted in the presence of DMSO. Mean values of four independent experiments each with quadruplicate measurements including the standard deviation are shown. (C) Huh7-Lunet/CD81 cells were inoculated with genotype 1a, 1b, 2b, 3a, 4a, 5a and 6a chimeric reporter viruses in the presence of increasing doses of BJ486K. Luciferase activity was determined 72 h later and is expressed relative to infections in the presence of DMSO. Mean values of three independent experiments, each with triplicate measurements, are given. (D) Primary human hepatocytes were inoculated with Con1/C3 in the presence of DMSO or increasing concentrations of BJ486K. The inhibition of HCV infection was assessed by focus-formation assay and is expressed as % inhibition relative to DMSO-treated cells. Mean values of duplicate measurements including the error range are given. […]

[2] = UV-visible spectrophotometric titration by MgCl2; format: physicochemical; conditions: high excess of Mg(II); CH3CN/H2O (1:1 by volume)
Experimental: FIG. 17: (A) UV-visible spectrophotometric titration of BJ486K (newly re-prepared as XM148) by MgCl2 and (B) absorption electronic spectra of the flavone BJ486K and its magnesium(II) complex BJ486K-MgCl2. Solvent: CH3CN/H2O (1:1 by volume); T=25.0° C.; l=1 cm; [BJ486K]tot=7.63×10^−5 M; (1) [MgCl2]tot/[BJ486K]tot=0; (2) [MgCl2]tot/[BJ486K]tot=185.8. To ensure solubilisation of both the flavone BJ486K (newly re-prepared as XM148) and MgCl2, a mixed solvent made of 50% of water and 50% of CH3CN was used. A stock solution of XM148 ([…] in 10 mL of argon saturated CH3CN, [XM148]tot=9.54×10^−3 M) was prepared. 160 μL of the flavone stock solution in CH3CN was diluted in 1 mL and 840 μL of Ar-saturated water and CH3CN, respectively. The absorption spectrophotometric titration (200-800 nm) was carried out by successive addition of aliquots (10 μL) of a stock solution of MgCl2 freshly prepared in water (337.6 mg in 5 mL, [MgCl2]tot=7.09×10^−3 M). […]
FIG. 18: (A) UV-visible spectrophotometric titration of XM131 (final precursor B, Scheme 2) by MgCl2. […] Absorption spectra (200-800 nm) was recorded after each addition of aliquots (10 μL) of a stock solution of MgCl2 freshly prepared in water (337.6 mg in 5 mL, [MgCl2]tot=7.09×10^−3 M). […]

Jc1 = experiment: HCV virus assembly/release, intra- and extracellular core protein after Jc1 RNA transfection; format: cell-based; conditions: 48 h after transfection, drugs added 4 h after transfection
Experimental: (A) Huh7-Lunet/CD81 cells were transfected with the subgenomic luciferase replicon depicted at the top. Drugs were added 4 h post transfection and the level of HCV RNA translation and RNA replication was quantified by luciferase assays 72 h post transfection. Mean values of three independent experiments each with quadruplicate measurements including the standard deviation are shown. (B) Cells were transfected with the Jc1 chimera depicted above and drugs were added 4 h later. HCV virus release in the presence or absence of given compounds was determined by quantification of intracellular and extracellular core protein levels using a core-specific ELISA. Mean values of three independent experiments with single measurements including the error range are given. (C) Huh7-Lunet/CD81 cells were inoculated with Luc-Jc1 reporter viruses prepared in the absence of drugs. BJ486K was added to the cells only prior to inoculation (black), only during inoculation (grey) or selectively directly after inoculation (white) as schematically depicted at the top. Infectivity was determined 72 h later by luciferase assays and compared to DMSO-treated controls. Mean values of three independent experiments each with quadruplicate measurements including the standard deviation are shown.
Huh7-Lunet/CD81 cells were transfected with Jc1 RNA and seeded on a 6-well plate. Compounds were added 4 h later. At 48 h after transfection, cell culture supernatant was harvested and used for measuring the extracellular core amount. Cells were washed once with PBS, scraped and centrifuged for 5 min at 1000×g. Cell pellets were resuspended in 500 μl fresh culture fluid and subjected to three cycles of freeze and thaw using liquid nitrogen and a 37° C. thermo block. Samples were than centrifuged at 10,000×g for 10 min to remove cell debris and the core amount was measured (intracellular core protein) using the […] […]
To determine whether BJ486K affects virus assembly or release we transfected Huh7-Lunet/CD81 cells with Jc1 RNA and quantified intra- and extracellular levels of core protein 48 h after transfection (FIG. 2B).

JcR-2a virus particles = experiment: Antiviral activity against early steps of HCV cell entry, synchronized JcR-2a infection (FIG. 3); format: cell-based; conditions: heparin 50 μg/ml, JS-81 2 μg/ml; inhibitor present 4 h
Experimental: FIG. 3: BJ486K inhibits cell entry post virus attachment. The design of the JcR-2a reporter virus construct is given at the top. Huh7-Lunet/CD81 cells were inoculated with concentrated JcR-2a particles at 4° C. for 60 minutes. Subsequently, unbound virus particles were washed away and cells were shifted to 37° C. to permit synchronized cell entry. According to the 8 experimental protocols depicted in the middle, various cell entry inhibitors including heparin (50 μg/ml), ITX5061 (10 μM), CD81-specific antibody JS-81 (2 μg/ml) and BJ486K (20 μM) were either present during inoculation (protocol 1) or were added at different time points after inoculation (protocols 2 to 8). In each case, inhibitor was present for 4 h (dashed line) and was then washed away. Efficiency of cell entry was determined 48 h post inoculation by determination of luciferase activity and is expressed relative to control infections conducted in the presence of solvent alone (DMSO). Mean values of three independent experiments each with quadruplicate measurements including the standard deviation are shown.
JcR-2a virus particles were incubated with Huh7-Lunet/CD81 cells seeded as described above for 1 h at 4° C. to synchronize cell entry. Various inhibitors including 50 μg/ml heparin (Sigma-Aldrich), CD81-specific antibody JS-81 (2 μg/ml; Becton Dickinson), ITX 5061 (10 μM) or BJ486K (20 μM), were added during virus inoculation (protocol 1) or at indicated time points after virus inoculation (protocol 2-8). After 4 h inhibitor treatment, medium was changed to fresh culture fluid without inhibitors and the cells were lysed 48 h after inoculation as described above. Efficiency of infection was determined by luciferase assay using a tube luminometer (Lumat LB9507, Berthold, Freiburg, Germany).
To resolve which step of HCV cell entry is inhibited by BJ486K, we assessed its antiviral activity when administered at different time points during the early phase of infection. To this end, Huh7-Lunet/CD81 cells were inoculated for one hour at 4° C. with a reporter virus prepared in the absence of drugs. […]

For `CCN(CC)CCCC(C)Nc1ccnc2cc(Cl)ccc12` (stereo not drawn) [Chloroquine, chloroquine], the cytotoxicity (Huh7.5 F-Luc cells) was “no cytotoxicity detectable”, the cytotoxicity (Huh7.5 F-Luc cells; listed as chloroquine) was “no cytotoxicity” and the anti-HCV effect (JcR-2a virus) was “dose-dependent anti-HCV effect”. For the same compound, the anti-HCV effect (JcR-2a virus; listed as chloroquine) was “dose-dependent inhibition of HCV”.

With `COc1c(NC(=O)C(=O)c2ccc(OCCN3CCOCC3)c3ccccc23)cc(C(C)(C)C)cc1NS(C)(=O)=O` [ITX5061, reference compound] the “antiviral activity against G451R mutant compared with wild type” value [1] was “resistant”.

In the case of `COc1ccc(-c2cc(=O)c3c(OC)c(O)c(OC)cc3o2)cc1` [XM131, 6-Hydroxy-5,7-dimethoxy-2-(4-methoxy-phenyl)-chromen-4-one], the “Mg(II) complexation” value [2] is reported as “no absorption variation can be observed; also recorded: no Mg(II) complex is observed”.

In the case of `O=C1C[C@@H](c2ccc(O)cc2)Oc2cc(O)cc(O)c21` [naringenin], the “reduction of extracellular levels of core protein” value (Jc1) is reported as “ca. 5 fold”.

With `C=C[C@H]1C[N@@]2CC[C@H]1C[C@@H]2[C@@H](O)c1ccnc2ccc(OC)cc12` [quinidine] the “reduction of extracellular levels of core protein” value (Jc1) was “more than 100 fold”.

In the case of heparin [reference compound], the “inhibition of HCV entry by time of addition, in words” value (JcR-2a virus particles) is reported as “only interfered with HCV infection when present already during inoculation”.
